Results: article PMC9007595 (Molecular microbiology, 2020)

Columns and labels:
[1] = molecular target: T1, Mtb HtpG (Mycobacterium tuberculosis, UniProt P9WMJ7); test: […]; format: binding
T1 sequence (P9WMJ7 1-647): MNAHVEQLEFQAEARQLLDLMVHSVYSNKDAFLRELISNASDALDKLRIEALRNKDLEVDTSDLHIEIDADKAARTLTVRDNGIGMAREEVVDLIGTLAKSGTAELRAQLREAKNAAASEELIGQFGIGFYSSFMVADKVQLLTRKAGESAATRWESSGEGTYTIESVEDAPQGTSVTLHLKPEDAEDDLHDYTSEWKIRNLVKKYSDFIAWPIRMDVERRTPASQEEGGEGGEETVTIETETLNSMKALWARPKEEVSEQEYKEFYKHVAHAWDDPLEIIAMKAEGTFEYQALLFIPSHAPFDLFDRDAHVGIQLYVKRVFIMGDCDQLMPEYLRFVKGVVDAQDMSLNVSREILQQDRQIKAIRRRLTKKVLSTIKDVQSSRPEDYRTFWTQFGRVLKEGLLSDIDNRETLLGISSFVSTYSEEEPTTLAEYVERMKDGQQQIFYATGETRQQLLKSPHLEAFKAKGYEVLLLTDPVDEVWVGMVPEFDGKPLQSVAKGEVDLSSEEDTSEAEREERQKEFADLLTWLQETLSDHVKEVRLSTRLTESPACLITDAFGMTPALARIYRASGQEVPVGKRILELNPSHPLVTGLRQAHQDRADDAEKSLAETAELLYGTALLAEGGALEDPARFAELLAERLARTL

[2] = molecular target: yeast Hsp90 (S. cerevisiae Hsp82) (Saccharomyces cerevisiae, UniProt P02829); test: ATPase activity assay with purified protein; format: biochemical
[3] = molecular target: the molecule itself; test: SEC

Sequence of yeast Hsp90 (S. cerevisiae Hsp82) (P02829 whole entry): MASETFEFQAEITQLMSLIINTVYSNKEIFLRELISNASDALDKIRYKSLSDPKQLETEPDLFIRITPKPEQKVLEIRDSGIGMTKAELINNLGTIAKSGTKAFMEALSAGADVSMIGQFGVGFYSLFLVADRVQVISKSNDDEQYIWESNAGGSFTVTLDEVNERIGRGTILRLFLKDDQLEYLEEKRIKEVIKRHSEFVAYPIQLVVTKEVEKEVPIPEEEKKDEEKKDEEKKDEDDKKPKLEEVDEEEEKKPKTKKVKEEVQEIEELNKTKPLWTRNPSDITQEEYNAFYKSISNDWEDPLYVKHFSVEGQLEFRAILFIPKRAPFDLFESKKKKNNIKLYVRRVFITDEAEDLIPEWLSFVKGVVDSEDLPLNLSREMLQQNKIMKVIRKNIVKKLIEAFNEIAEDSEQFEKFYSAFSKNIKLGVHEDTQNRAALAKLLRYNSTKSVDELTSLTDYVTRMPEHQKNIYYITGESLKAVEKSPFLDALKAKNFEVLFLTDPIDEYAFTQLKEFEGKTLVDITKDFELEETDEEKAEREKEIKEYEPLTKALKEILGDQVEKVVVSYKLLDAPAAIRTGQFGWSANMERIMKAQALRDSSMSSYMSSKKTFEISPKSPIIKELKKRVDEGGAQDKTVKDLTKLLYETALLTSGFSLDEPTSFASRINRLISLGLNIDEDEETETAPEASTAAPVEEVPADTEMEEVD

## COC1=C2C[C@@H](C)C[C@H](OC)[C@H](O)[C@@H](C)/C=C(\C)[C@H](OC(N)=O)[C@@H](OC)/C=C\C=C(/C)C(=O)NC(=CC1=O)C2=O [GA, geldanamycin]
[1]
  Kd: ~15.7 µM
[2]
  ATPase activity assay with purified protein (Figure S19): Both proteins exhibited low ATPase activity that was inhibited by GA (Figure S19)

B1: purified Mtb HtpG (size exclusion chromatography) (natural protein)
chain: MNAHVEQLEFQAEARQLLDLMVHSVYSNKDAFLRELISNASDALDKLRIEALRNKDLEVDTSDLHIEIDADKAARTLTVRDNGIGMAREEVVDLIGTLAKSGTAELRAQLREAKNAAASEELIGQFGIGFYSSFMVADKVQLLTRKAGESAATRWESSGEGTYTIESVEDAPQGTSVTLHLKPEDAEDDLHDYTSEWKIRNLVKKYSDFIAWPIRMDVERRTPASQEEGGEGGEETVTIETETLNSMKALWARPKEEVSEQEYKEFYKHVAHAWDDPLEIIAMKAEGTFEYQALLFIPSHAPFDLFDRDAHVGIQLYVKRVFIMGDCDQLMPEYLRFVKGVVDAQDMSLNVSREILQQDRQIKAIRRRLTKKVLSTIKDVQSSRPEDYRTFWTQFGRVLKEGLLSDIDNRETLLGISSFVSTYSEEEPTTLAEYVERMKDGQQQIFYATGETRQQLLKSPHLEAFKAKGYEVLLLTDPVDEVWVGMVPEFDGKPLQSVAKGEVDLSSEEDTSEAEREERQKEFADLLTWLQETLSDHVKEVRLSTRLTESPACLITDAFGMTPALARIYRASGQEVPVGKRILELNPSHPLVTGLRQAHQDRADDAEKSLAETAELLYGTALLAEGGALEDPARFAELLAERLARTL
[3]
  binding result: binds
